One block for each compound: values may come before it.
Experiments:
[1] = Dynamic Vapor Sorption (DVS) analysis with XRPD after equilibration; assay type: physicochemical; settings: for moisture/water content on initial equilibration at 50% RH (DVS): beginning of analysis; for reversibility of water uptake (DVS): as relative humidity decreased
Description: Sorption isotherms were obtained using a Hiden Isochema moisture sorption analyzer (model IGAsorp), controlled by IGAsorp Systems Software V6.50.48. The sample was maintained at a constant temperature (25° C.) by the instrument controls. The humidity was controlled by mixing streams of dry and wet nitrogen, with a total flow of 250 mL·min^−1. The instrument was verified for relative humidity content by measuring three calibrated Rotronic salt solutions (10%, 50%, 88%). The weight change of the sample was monitored as a function of humidity by a microbalance (accuracy+/−0.005 mg). A defined amount of sample was placed in a tared mesh stainless steel basket under ambient conditions. A full experimental cycle typically consisted of three scans (sorption, desorption and sorption) at a constant temperature (25° C.) and 10% RH intervals over a 0-90% range (60 minutes for each humidity level). […]
This water content decreased as relative humidity decreased in the first desorption cycle.
The solid absorbed 3.39% water over the humidity range. […] The profile was similar to that of Form C in Example 7.2.

[2] = Drying studies of Compound 1 Hydrochloride (XRPD, TGA); assay type: physicochemical
Description: Compound 1 Hydrochloride Form A was then subjected to drying under various conditions.
Drying studies of Compound 1 Hydrochloride Form A (Type 1 Lot) were performed.
Variability in the drying profiles of different lots of Compound 1 Hydrochloride were noted, particularly with regards to the transition between Form A and Form C. The variable behavior appeared to depend upon the nature of the input Form A batch (e.g., how it was generated and then conditioned, if at all, prior to drying, and/or if excess hydrochloric acid was present).
Concentrated HCl (154 μL, 1 eqiuv) was added which clarified the suspension to a deep orange solution. The mixture was equilibrated for 30 minutes before cooling gradually to room temperature. A thin yellow suspension resulted. The solvent volume was reduced by 50% which thickened the suspension. The suspension was matured overnight, following which the solid was filtered to isolate the solids. The solid was air dried for ˜30 minutes giving a yellow solid (damp mass: 1.24 g; pH measured at 5.0). The XRPD pattern of the damp solid corresponded with Compound 1 Hydrochloride Form H. Analysis of the damp solid by DSC and TGA indicated a water content of 8.2%, which was fairly labile up ˜75° C.
Compound 1 Hydrochloride Form H was then subjected to a drying study under various conditions.
The solids were further subjected to prolonged drying.

[3] = Solid state stability under humid conditions (40° C./75% RH and 25° C./60% RH, two weeks); assay type: physicochemical
Description: Stability of Compound 1 Hydrochloride Forms A, B, C, and D was evaluated under humid conditions. Samples of Forms A, B, C, and D were stored at 40° C./75% RH and 25° C./60% RH for a period of two weeks (loosely capped glass vials with approx. 200 mg solid). Solids were then re-analyzed using methods described herein. A summary of the results is provided in Table 12 (after storage at 25° C./60% RH) and Table 13 (after storage at 40° C./75% RH).

[4] = Form stability on standing on bench or at 40° C./75% RH (XRPD); assay type: physicochemical
Description: Two samples of the solid were stored under glass with loose fitting lids on a bench and at 40° C./75% RH for a period of 5 days and re-analyzed by XRPD.
In an additional experiment, a sample of Form F was left to stand on a bench in a loosened vial for 48 hours.

[5] = Aqueous solubility of salt forms (25° C., 1, 4, 24 h); settings: deionized water; for XRPD: isolated solids
Description: Aqueous solubility of certain salt forms was assessed. Each solid (100 mg) was charged into a crystallization tube. Deionized water (1 mL) was added to each tube to give a suspension. The mixtures were equilibrated at 25° C. for 24 hours with sampling after 1 and 4 hours' equilibration. Solids were isolated and XRPD analysis obtained.

[6] = Dry in vacuo at 25° C., T = 4 h
[7] = Dry in vacuo at 25° C., T = 24 h
[8] = Dry in vacuo at 25° C., T = 48 h
[9] = Dry in vacuo at 25° C., T = 120 h
[10] = Dry in vacuo at 45° C., T = 4 h
[11] = Dry in vacuo at 45° C., T = 24 h
[12] = Dry in vacuo at 45° C., T = 120 h
[13] = Dry in vacuo at 70° C., T = 4 h
[14] = Dry in vacuo at 70° C., T = 24 h
[15] = Dry in vacuo at 70° C., T = 120 h
[16] = Form C prepared from Form A, Type 1 Lot
[17] = Form C prepared from Form A, Type 2 Lot
[18] = under glass with loose fitting lid, 5 days
[19] = Dry in vacuo at 25° C., T = 96 h
[20] = Dry in vacuo at 45° C., T = 96 h
[21] = Dry in vacuo at 70° C., T = 96 h

Compound: COC(=O)c1ccc2c(c1)NC(=O)/C2=C(\Nc1ccc(N(C)C(=O)CN2CCN(C)CC2)cc1)c1ccccc1.Cl [Compound 1 Hydrochloride Form A (Type 2 Lot)]
XRPD analysis following equilibration at 0% RH ([1]; 0% RH): mixture of Form A and Form C | moisture/water content on initial equilibration at 50% RH (DVS) [1]: 6.39% | XRPD analysis following equilibration at 90% RH ([1]; 90% RH): predominantly Form A | uptake of water following initial equilibration at 50% RH during first desorption cycle (DVS) ([1]; first desorption cycle): −7% | water absorbed over the humidity range, first sorption cycle (DVS) ([1]; first sorption cycle): 8.66% | TGA (%) [2, 6]: 9.96% | TGA (%) [2, 7]: 7.09% | XRPD [2, 7]: Form A | TGA (%) [2, 8]: 6.61% | XRPD [2, 8]: Form A | TGA (%) [2, 9]: 3.45% | TGA (%) [2, 10]: 9.89% | TGA (%) [2, 11]: 6.93% | TGA (%) ([2]; Dry in vacuo at 45° C., T = 48 h): 6.63% | TGA (%) [2, 12]: 2.27% | TGA (%) [2, 13]: 8.93% | TGA (%) [2, 14]: 6.49% | TGA (%) ([2]; Dry in vacuo at 70° C., T = 48 h): 6.68% | TGA (%) [2, 15]: 2.17% | TGA (%) ([2]; T = 0, before drying): 14.83% | level of hydration after extended drying ([2]; summary of drying studies, Table 10): reduced to 2-3% | XRPD After Storage ([3]; 25° C./60% RH): Form A/C | XRPD After Storage ([3]; 40° C./75% RH): amorphous

Compound: COC(=O)c1ccc2c(c1)NC(=O)/C2=C(\Nc1ccc(N(C)C(=O)CN2CCN(C)CC2)cc1)c1ccccc1.Cl [Compound 1 Hydrochloride Form B]
XRPD analysis following equilibration at 0% RH ([1]; 0% RH): Form F | moisture/water content on initial equilibration at 50% RH (DVS) [1]: 4.2% | XRPD analysis following equilibration at 90% RH ([1]; 90% RH): Form H | level of water reached in initial sorption step after 70% RH (DVS) ([1]; above 70% RH): 17.3% | reversibility of water uptake (DVS) [1]: reversible | loss of water on the initial desorption step (DVS) ([1]; initial desorption step): ~1.5% | water content after the second desorption step (DVS) ([1]; second desorption step): 1.1% | TGA After Storage: further loss above/post 200° C. ([3]; 25° C./60% RH): 1.41% post 200 °C | TGA After Storage: weight reduction to 60° C. ([3]; 25° C./60% RH): Weight reduction of 1.69% to 60 °C | XRPD After Storage ([3]; 25° C./60% RH): Form B | TGA After Storage: further loss above/post 200° C. ([3]; 40° C./75% RH): followed by further loss of 1.4% | TGA After Storage: weight reduction to 60° C. ([3]; 40° C./75% RH): Weight reduction of 1.0% to 60 °C | XRPD After Storage ([3]; 40° C./75% RH): Form H

Compound: COC(=O)c1ccc2c(c1)NC(=O)/C2=C(\Nc1ccc(N(C)C(=O)CN2CCN(C)CC2)cc1)c1ccccc1.Cl [Compound 1 Hydrochloride Form C]
XRPD analysis following equilibration at 0% RH ([1]; 0% RH): remained Form C | XRPD analysis following equilibration at 90% RH ([1]; 90% RH): Form A | water absorbed above 70% RH (DVS) [1, 16]: 8.38% | water absorbed up to 70% RH, initial sorption step (DVS) [1, 16]: 1.44% | water content reached over the humidity range on second sorption cycle (DVS) [1, 16]: 10% | XRPD analysis following equilibration at 0% RH [1, 17]: remained Form C | XRPD analysis following equilibration at 90% RH [1, 17]: remained Form C | water absorbed over the humidity range (DVS) [1, 17]: 3.39% | water absorbed up to 80% RH (DVS) [1, 17]: 1.55% | reversibility of water uptake (DVS) [1]: reversible | form after equilibration in water (damp solid, XRPD) ([2]; equilibrated in water for 48 hours): readily converted to Form A | TGA After Storage: further loss above/post 200° C. ([3]; 25° C./60% RH): 0.98% post 200 °C | XRPD After Storage ([3]; 25° C./60% RH): Form C | TGA After Storage: further loss above/post 200° C. ([3]; 40° C./75% RH): 1.0% post 200 °C | XRPD After Storage ([3]; 40° C./75% RH): Form C | XRPD after storage at 40° C./75% RH [4, 18]: no change from Form C | XRPD after storage on a bench [4, 18]: no change from Form C

Compound: COC(=O)c1ccc2c(c1)NC(=O)/C2=C(\Nc1ccc(N(C)C(=O)CN2CCN(C)CC2)cc1)c1ccccc1.Cl [Compound 1 Hydrochloride Form D]
TGA After Storage: further loss above/post 200° C. ([3]; 25° C./60% RH): 1.51% post 200 °C | XRPD After Storage ([3]; 25° C./60% RH): Form D | TGA After Storage: further loss above/post 200° C. ([3]; 40° C./75% RH): 1.68% post 200 °C | XRPD After Storage ([3]; 40° C./75% RH): Form D

behaviour on prolonged drying ([2]; all drying temperatures (25, 45, 70° C.)): robust toward further changes | form after standing on a bench in a loosened vial (XRPD and TGA) ([4]; 48 hours): fully converted into Form H
Compound: COC(=O)c1ccc2c(c1)NC(=O)C2=C(Nc1ccc(N(C)C(=O)CN2CCN(C)CC2)cc1)c1ccccc1.Cl [Compound 1 Hydrochloride Form F]

Compound: COC(=O)c1ccc2c(c1)NC(=O)/C2=C(\Nc1ccc(N(C)C(=O)CN2CCN(C)CC2)cc1)c1ccccc1.Cl [Compound 1 Hydrochloride Form H]
TGA (%) [2, 6]: 0% | XRPD [2, 6]: Form F | XRPD [2, 7]: Form F | TGA (%) [2, 19]: 0% | XRPD [2, 19]: Form F | XRPD [2, 9]: Form F | TGA (%) [2, 10]: 0% | XRPD [2, 10]: Form F | XRPD [2, 11]: Form F | TGA (%) [2, 20]: 0% | XRPD [2, 20]: Form F | XRPD [2, 12]: Form F | TGA (%) [2, 13]: 0% | XRPD [2, 13]: Form F | XRPD [2, 14]: Form F | TGA (%) [2, 21]: 0% | XRPD [2, 21]: Form F | XRPD [2, 15]: Form F | TGA (%) ([2]; T = 0, before drying): 8.24% | XRPD ([2]; T = 0, before drying): Form H

Compound: COC(=O)c1ccc2c(c1)NC(=O)/C2=C(\Nc1ccc(N(C)C(=O)CN2CCN(C)CC2)cc1)c1ccccc1.Cl [HCl (Form A, Type 1 Lot)]
Solubility ([5]; t = 1 h): 70.37 mg/mL | pH ([5]; t = 1 h): 3.34 | Solubility ([5]; t = 4 h): 50.54 mg/mL | Solubility ([5]; t = 24 h): 52.88 mg/mL | pH ([5]; t = 24 h): 3.28

Compound: COC(=O)c1ccc2c(c1)NC(=O)/C2=C(\Nc1ccc(N(C)C(=O)CN2CCN(C)CC2)cc1)c1ccccc1.Cl [HCl (Form A, Type 2 Lot)]
Solubility ([5]; t = 1 h): 46.11 mg/mL | pH ([5]; t = 1 h): 5.22 | XRPD ([5]; t = 1 h): Form A | Solubility ([5]; t = 4 h): 43.78 mg/mL | XRPD ([5]; t = 4 h): Form A | Solubility ([5]; t = 24 h): 40.58 mg/mL | pH ([5]; t = 24 h): 5.25 | XRPD ([5]; t = 24 h): Form A

Compound: Maleate
Solubility ([5]; t = 1 h): 12.50 mg/mL | pH ([5]; t = 1 h): 6.35 | Solubility ([5]; t = 4 h): 12.39 mg/mL | Solubility ([5]; t = 24 h): 9.45 mg/mL | pH ([5]; t = 24 h): 6.40

Compound: Tosylate
Solubility ([5]; t = 1 h): 2.07 mg/mL | pH ([5]; t = 1 h): 6.46 | Solubility ([5]; t = 4 h): 2.02 mg/mL | Solubility ([5]; t = 24 h): 2.39 mg/mL | pH ([5]; t = 24 h): 6.66

Source: patent US20230312561A1, “SOLID FORMS OF (Z)-METHYL 3-(((4-(N-METHYL-2-(4-METHYLPIPERAZIN-1-YL)ACETAMIDO)PHENYL)AMINO)(PHENYL)METHYLENE)-2-OXO-2,3-DIHYDRO-1H-PYRROLO[2,3-B]PYRIDINE-6-CARBOXYLATE AND SALTS THEREOF” (Angion Biomedica Corp., priority 2020, published 2023)
